In patent US20260201008A1, “SECRETIN-DERIVED GLP1R SELECTIVE AGONISTS” (GUBRA A/S, priority 2023, published 2026):
Read-outs that look alike come from different tables or passages of the source. Numbered stars: 1 amine (or outer) side, 2 acyl side, 3 side chain; on linkers, the order of the positions; unused ones are H or OH. Square brackets hold non-standard residues; d marks the D form. Side chains are listed from the residue outwards. Peptide text beside a SMILES is read from it. * marks the point of attachment. C20 diacid = O=C(O)CCCCCCCCCCCCCCCCCCC(=O)*; γGlu = O=C(O)[C@H](CCC(=O)[*:2])N[*:1]; AEEA = NCCOCCOCC(=O)O; Aib = CC(C)(N)C(=O)O

Assays:
GLP1R = GLP1R (Homo sapiens, UniProt P43220); assay: hGLP1R potency, cAMP accumulation in CHO-K1 cells stably overexpressing hGLP1R; type: cell-based; design: host or cells: CHO-K1; conditions: for Selectivity: SCTR EC50/GLP1R EC50 ratio; for EC50: cAMP accumulation; for SCTR EC50/GLP1R EC50 ratio: cAMP accumulation in CHO-K1 cells
In short: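 Cells were plated in DPBS with 0.05% casein and 0.5 mM IBMX, then stimulated for 30 min at room temperature with test compound. cAMP was read by TR-FRET after one hour. EC50 came from variable-slope sigmoid nonlinear regression; purified peptides ran as 11-point 3-fold series, n=2.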

[1] = Fibril formation of crude library peptides (Thioflavin T); type: physicochemical; design: key: average ThT fluorescence emission at 480 nm (ex 450 nm), raw units; conditions: Physical stability of peptides
In short: (§1)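 Values reflect mean ThT emission (ex 450, em 480 nm) over 72 h at 40° C, read every 10 min after 5 min shaking at 700 rpm, plus a single initial absorbance at 600 nm for turbidity. Peptides were at 267 μM, pH 4.0 acetate or pH 7.0 phosphate (50 mM), with 4 μM ThT.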

SCTR = SCTR (Homo sapiens, UniProt P47872); assay: hSCTR potency, cAMP accumulation in CHO-K1 cells stably overexpressing hSCTR; type: cell-based; design: alternatively Euroscreen ES-712-AF; FAST-0161L; host or cells: CHO-K1; conditions: cAMP accumulation
In short: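 Division-arrested CHO-K1 cells stably expressing hSCTR were plated in DPBS with 0.05% casein and 0.5 mM IBMX, then stimulated with test peptide for 30 min at room temperature. cAMP was read by HTRF after one hour. EC50 came from variable-slope sigmoidal nonlinear regression.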

[2] = Turbidity of crude library peptides (absorbance at 600 nm); type: physicochemical; conditions: Physical stability of peptides
In short: as §1

[3] = CHO-K1 cells overexpressing hGLP1R, read-out: pEC50 hGLPR1 (converted)
[4] = CHO-K1 cells overexpressing hSCTR, read-out: pEC50 hSCTR (converted)
[5] = CHO-K1 cells overexpressing hGLP1R, read-out: hGLP1R pEC50 (converted)
[6] = selectivity for hGLP1R over hSCTR
[7] = CHO-K1 cells overexpressing hSCTR, read-out: hSCTR pEC50 (converted)
[8] = CHO-K1 cells stably overexpressing hGLP1R, read-out: hGLP1R potency (pEC50) (converted)
[9] = selectivity ratio, hSCTR vs hGLP1R
[10] = CHO-K1 cells stably overexpressing hSCTR, read-out: hSCTR potency (pEC50) (converted)

GLP1R, sequence (P43220 24-463): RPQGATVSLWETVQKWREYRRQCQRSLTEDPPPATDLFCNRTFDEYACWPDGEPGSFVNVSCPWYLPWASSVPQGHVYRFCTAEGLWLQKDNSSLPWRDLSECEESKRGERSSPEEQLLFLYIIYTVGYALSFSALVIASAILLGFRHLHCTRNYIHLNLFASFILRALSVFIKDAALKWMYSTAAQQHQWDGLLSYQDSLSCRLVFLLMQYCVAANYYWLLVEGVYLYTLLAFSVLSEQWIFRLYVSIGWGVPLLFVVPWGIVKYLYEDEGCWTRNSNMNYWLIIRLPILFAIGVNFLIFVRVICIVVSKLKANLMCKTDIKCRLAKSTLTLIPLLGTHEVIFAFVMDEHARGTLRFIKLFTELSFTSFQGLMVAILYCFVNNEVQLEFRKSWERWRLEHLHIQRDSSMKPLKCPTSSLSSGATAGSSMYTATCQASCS
SCTR, sequence (P47872 23-440): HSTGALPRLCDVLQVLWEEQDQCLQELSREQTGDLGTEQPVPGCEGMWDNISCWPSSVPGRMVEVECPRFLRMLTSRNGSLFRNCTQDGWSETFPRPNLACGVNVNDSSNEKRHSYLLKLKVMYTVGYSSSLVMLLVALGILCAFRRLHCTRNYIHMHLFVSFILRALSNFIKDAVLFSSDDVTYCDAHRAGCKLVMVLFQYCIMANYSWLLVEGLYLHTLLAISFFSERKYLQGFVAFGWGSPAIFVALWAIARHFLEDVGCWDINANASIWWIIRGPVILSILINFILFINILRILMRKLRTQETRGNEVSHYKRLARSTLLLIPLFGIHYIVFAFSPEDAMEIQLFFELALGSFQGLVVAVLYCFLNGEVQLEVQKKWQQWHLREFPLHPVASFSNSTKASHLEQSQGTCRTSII

Row | SMILES | Selectivity (GLP1R) | EC50 (GLP1R; [3]) | Fibril formation [1] | EC50 (SCTR; [4]) | Turbidity (pH 7) [2] | EC50 (GLP1R; [5]) | SCTR EC50/GLP1R EC50 ratio (GLP1R; [6]) | EC50 (SCTR; [7]) | EC50 (GLP1R; [8]) | SCTR EC50/GLP1R EC50 ratio (GLP1R; [9]) | EC50 (SCTR; [10])
1 | CC(C)C[C@H](NC(=O)[C@H](Cc1ccccc1)NC(=O)[C@H](CCCNC(=N)N)NC(=O)[C@H](CCC(N)=O)NC(=O)[C@H](C)NC(=O)[C@H](C)NC(=O)[C@H](C)NC(=O)[C@@H](NC(=O)[C@H](CCC(=O)O)NC(=O)[C@H](CCCCNC(=O)COCCOCCNC(=O)COCCOCCNC(=O)CC[C@H](NC(=O)CCCCCCCCCCCCCCCCCCC(=O)O)C(=O)O)NC(=O)[C@H](CC(C)C)NC(=O)[C@H](CCCNC(=N)N)NC(=O)[C@H](CO)NC(=O)[C@@H](NC(=O)[C@H](CC(=O)O)NC(=O)[C@H](CO)NC(=O)[C@@H](NC(=O)[C@H](Cc1ccccc1)NC(=O)[C@@H](NC(=O)CNC(=O)[C@H](CCC(=O)O)NC(=O)C(C)(C)NC(=O)[C@@H](N)Cc1c[nH]cn1)[C@@H](C)O)[C@@H](C)O)C(C)C)[C@@H](C)O)C(=O)N[C@@H](CCC(=O)O)C(=O)N[C@@H](Cc1c[nH]cn1)C(=O)N[C@@H](CC(C)C)C(=O)N[C@H](C(N)=O)C(C)C [compound 23] (H-H[Aib]EGTFTSDVSRLK([AEEA-AEEA-γGlu-C20 diacid])ETAAAQRFLEHLV-NH2) | 8143 | 0.02 nM | 7462 | 158 nM | 0.08 |  |  |  |  |  | 
2 | CC(C)C[C@H](NC(=O)[C@H](Cc1ccccc1)NC(=O)[C@H](CCCNC(=N)N)NC(=O)[C@H](CCC(N)=O)NC(=O)[C@H](CC(C)C)NC(=O)C(C)(C)NC(=O)[C@H](C)NC(=O)[C@H](CCC(=O)O)NC(=O)[C@H](CCC(=O)O)NC(=O)[C@H](Cc1ccccc1)NC(=O)[C@H](CC(C)C)NC(=O)[C@H](Cc1ccc(O)cc1)NC(=O)[C@H](CO)NC(=O)[C@@H](NC(=O)[C@H](CC(=O)O)NC(=O)[C@H](CO)NC(=O)[C@@H](NC(=O)[C@H](Cc1ccccc1)NC(=O)[C@@H](NC(=O)CNC(=O)[C@H](CCC(=O)O)NC(=O)C(C)(C)NC(=O)[C@@H](N)Cc1c[nH]cn1)[C@@H](C)O)[C@@H](C)O)C(C)C)C(=O)N[C@@H](CCC(=O)O)C(=O)N[C@@H](CCCCNC(=O)COCCOCCNC(=O)COCCOCCNC(=O)CC[C@H](NC(=O)CCCCCCCCCCCCCCCCCCC(=O)O)C(=O)O)C(=O)N[C@@H](CC(C)C)C(=O)N[C@H](C(N)=O)C(C)C [compound 176] (H-H[Aib]EGTFTSDVSYLFEEA[Aib]LQRFLEK([AEEA-AEEA-γGlu-C20 diacid])LV-NH2) |  |  | 3751 |  | 0.08 | 0.0316 nM | 89023 | 3160 nM |  |  | 
3 | CC(C)C[C@H](NC(=O)[C@H](Cc1ccccc1)NC(=O)[C@H](CCCNC(=N)N)NC(=O)[C@H](CCC(N)=O)NC(=O)[C@H](CC(C)C)NC(=O)C(C)(C)NC(=O)[C@H](C)NC(=O)[C@H](CCC(=O)O)NC(=O)[C@H](CCC(=O)O)NC(=O)[C@H](CCCCNC(=O)COCCOCCNC(=O)COCCOCCNC(=O)CC[C@H](NC(=O)CCCCCCCCCCCCCCCCCCC(=O)O)C(=O)O)NC(=O)[C@H](CC(C)C)NC(=O)[C@H](Cc1ccc(O)cc1)NC(=O)[C@H](CO)NC(=O)[C@@H](NC(=O)[C@H](CC(=O)O)NC(=O)[C@H](CO)NC(=O)[C@@H](NC(=O)[C@H](Cc1ccccc1)NC(=O)[C@@H](NC(=O)CNC(=O)[C@H](CCC(=O)O)NC(=O)C(C)(C)NC(=O)[C@@H](N)Cc1c[nH]cn1)[C@@H](C)O)[C@@H](C)O)C(C)C)C(=O)N[C@@H](CCC(=O)O)C(=O)N[C@@H](CCCCN)C(=O)N[C@@H](CC(C)C)C(=O)N[C@H](C(N)=O)C(C)C [compound 147] (H-H[Aib]EGTFTSDVSYLK([AEEA-AEEA-γGlu-C20 diacid])EEA[Aib]LQRFLEKLV-NH2) |  |  | 4336 |  | 0.08 | 0.00501 nM | 12361 | 63.1 nM |  |  | 
4 | CC(C)C[C@H](NC(=O)[C@H](Cc1ccccc1)NC(=O)[C@H](CCCNC(=N)N)NC(=O)[C@H](CCC(N)=O)NC(=O)[C@H](CCC(N)=O)NC(=O)[C@H](C)NC(=O)[C@H](C)NC(=O)[C@H](CCC(=O)O)NC(=O)[C@H](CCC(=O)O)NC(=O)[C@H](CCCCNC(=O)COCCOCCNC(=O)COCCOCCNC(=O)CC[C@H](NC(=O)CCCCCCCCCCCCCCCCCCC(=O)O)C(=O)O)NC(=O)[C@H](CC(C)C)NC(=O)[C@H](Cc1ccc(O)cc1)NC(=O)[C@H](CO)NC(=O)[C@@H](NC(=O)[C@H](CC(=O)O)NC(=O)[C@H](CO)NC(=O)[C@@H](NC(=O)[C@H](Cc1ccccc1)NC(=O)[C@@H](NC(=O)CNC(=O)[C@H](CCC(=O)O)NC(=O)C(C)(C)NC(=O)[C@@H](N)Cc1c[nH]cn1)[C@@H](C)O)[C@@H](C)O)C(C)C)C(=O)N[C@@H](CCC(=O)O)C(=O)N[C@@H](Cc1c[nH]cn1)C(=O)N[C@@H](CC(C)C)C(=O)N[C@H](C(N)=O)C(C)C [compound 47] (H-H[Aib]EGTFTSDVSYLK([AEEA-AEEA-γGlu-C20 diacid])EEAAQQRFLEHLV-NH2) | 17543 | 0.0158 nM | 13638 | 251 nM | 0.08 |  |  |  |  |  | 
5 | CC(C)C[C@H](NC(=O)[C@H](Cc1ccc(O)cc1)NC(=O)[C@H](CO)NC(=O)[C@H](Cc1ccc(O)cc1)NC(=O)[C@H](CC(=O)O)NC(=O)[C@H](CO)NC(=O)[C@@H](NC(=O)[C@H](Cc1ccccc1)NC(=O)[C@@H](NC(=O)CNC(=O)[C@H](CCC(=O)O)NC(=O)C(C)(C)NC(=O)[C@@H](N)Cc1c[nH]cn1)[C@@H](C)O)[C@@H](C)O)C(=O)N[C@@H](CCCCNC(=O)COCCOCCNC(=O)COCCOCCNC(=O)CC[C@H](NC(=O)CCCCCCCCCCCCCCCCCCC(=O)O)C(=O)O)C(=O)N[C@@H](CCC(=O)O)C(=O)N[C@@H](CCC(=O)O)C(=O)N[C@@H](C)C(=O)NC(C)(C)C(=O)N[C@@H](CC(C)C)C(=O)N[C@@H](CCC(N)=O)C(=O)N[C@@H](CCCNC(=N)N)C(=O)N[C@@H](Cc1ccccc1)C(=O)N[C@@H](CC(C)C)C(=O)N[C@@H](CCC(=O)O)C(=O)N[C@@H](Cc1c[nH]cn1)C(=O)N[C@@H](CC(C)C)C(=O)N[C@H](C(N)=O)C(C)C [compound 196] (H-H[Aib]EGTFTSDYSYLK([AEEA-AEEA-γGlu-C20 diacid])EEA[Aib]LQRFLEHLV-NH2) |  |  | 5187 |  | 0.08 |  |  |  | 0.0126 nM | 1743 | 20 nM
6 | CC(C)C[C@H](NC(=O)[C@H](Cc1ccccc1)NC(=O)[C@H](CCCNC(=N)N)NC(=O)[C@H](CCC(N)=O)NC(=O)[C@@H](NC(=O)[C@H](C)NC(=O)[C@H](C)NC(=O)C(C)(C)NC(=O)[C@H](CCC(=O)O)NC(=O)[C@H](CCCCNC(=O)COCCOCCNC(=O)COCCOCCNC(=O)CC[C@H](NC(=O)CCCCCCCCCCCCCCCCCCC(=O)O)C(=O)O)NC(=O)[C@H](CC(C)C)NC(=O)[C@H](Cc1ccc(O)cc1)NC(=O)[C@H](CO)NC(=O)[C@@H](NC(=O)[C@H](CC(=O)O)NC(=O)[C@H](CO)NC(=O)[C@@H](NC(=O)[C@H](Cc1ccccc1)NC(=O)[C@@H](NC(=O)CNC(=O)[C@H](CCC(=O)O)NC(=O)C(C)(C)NC(=O)[C@@H](N)Cc1c[nH]cn1)[C@@H](C)O)[C@@H](C)O)C(C)C)[C@@H](C)O)C(=O)N[C@@H](CCC(=O)O)C(=O)N[C@@H](Cc1c[nH]cn1)C(=O)N[C@@H](CC(C)C)C(=O)N[C@H](C(N)=O)C(C)C [compound 48] (H-H[Aib]EGTFTSDVSYLK([AEEA-AEEA-γGlu-C20 diacid])E[Aib]AATQRFLEHLV-NH2) | 5236 | 0.0251 nM | 16290 | 126 nM | 0.08 |  |  |  |  |  | 
7 | CC[C@H](C)[C@H](NC(=O)[C@H](Cc1ccccc1)NC(=O)[C@H](CCCNC(=N)N)NC(=O)[C@H](CCC(N)=O)NC(=O)[C@H](CC(C)C)NC(=O)[C@H](C)NC(=O)[C@H](C)NC(=O)CNC(=O)[C@H](CCC(=O)O)NC(=O)[C@H](CC(C)C)NC(=O)[C@H](CC(C)C)NC(=O)CNC(=O)[C@H](CO)NC(=O)[C@H](Cc1ccc(O)cc1)NC(=O)[C@H](CC(=O)O)NC(=O)[C@H](CO)NC(=O)[C@@H](NC(=O)[C@H](Cc1ccccc1)NC(=O)[C@@H](NC(=O)CNC(=O)[C@H](CCC(=O)O)NC(=O)C(C)(C)NC(=O)[C@@H](N)Cc1c[nH]cn1)[C@@H](C)O)[C@@H](C)O)C(=O)N[C@@H](CCC(N)=O)C(=O)N[C@@H](Cc1c[nH]c2ccccc12)C(=O)N[C@@H](CC(C)C)C(=O)N[C@H](C(N)=O)C(C)C [compound 195] (H-H[Aib]EGTFTSDYSGLLEGAALQRFIQWLV-NH2) |  |  | 144234 |  | 0.25 |  |  |  | 0.0251 nM | 419 | 10 nM
